pIC50: −log10 of the molar value.
target: HSET full length protein (Homo sapiens (Human), UniProt Q9BW19); test: HSET ADP-Glo Assay S - 3 μM ATP; format: biochemical; details: 5 nM HSET, 70 μg/mL microtubule, 80 min at rt, read-out: COMBINED HSET ADP GLO IC50
Method: Example 281: Testing compounds of the present invention for inhibitory activities against HSET—HSET ADP-Glo Assay S—3 μM ATP
Reagents: (+4° C. Storage) • Paclitaxel Prod.No.TXD.01 2 mM in DMSO (from Universal Biologicals Cambridge). • Tubulin Protein (Pre-formed Microtubules): Bovine Brain Prod.No.MT001-XL Lot.025 10 mg/mL (from Universal Biologicals Cambridge).
Reagents: (−80° C. Storage) • MT001-XL—Tubulin Protein (Pre-formed Microtubules): Bovine Brain—reconstituted in buffer—15 mM PIPES pH7, 1 mM MgCl2, 20 μM paclitaxel (aliquots at 10 mg/mL) from Universal Biologicals Cambridge. • HSET full length protein—Current batch is FL HSET Prep1 (SEQ-000096_002-01_01) • Buffer is 20 mM Hepes pH 7.5, 200 mM NaCl, 2 mM TCEP, 5% glycerol (5 μL aliquots at 10.2 μM)
Reagents: (−20° C. Storage) • ADP-Glo Kinase Assay kit (Promega Prod.No.V9102) 10,000 assay points • ADP-Glo reagent (50 mL), Kinase Detection Reagent (100 mL), and Ultrapure ATP (10 mM) aliquoted
Buffer Stocks (filtered and stored at rt for up to 1 month) • HEPES acid, 4-(2-Hydroxyethyl)piperazine-1-ethanesulfonic acid MW:238, 238.3 mg/mL=1 M • 7149 mg/30 mL=1M (pH to 6.8 with 5 M NaOH) • PIPES, 1,4-Piperazinediethanesulfonic acid MW: 302.4, 30.24 mg/mL=100 mM; 907.2 mg/30 mL=100 mM (pH to 7 with 5 M NaOH, white cloudy suspension until the pH changes) • EGTA, Ethylene glycol-bis(2-aminoethylether)-N,N,N′,N′-tetraacetic acid MW: 380.35, 38.035 mg/mL=100 mM • 1901.75 mg/50 mL=100 mM (pH to ˜7 with 5 M NaOH)—takes a long time to get into solution and for pH to stabilize • Triton-X-100, MW: 625, 62.5 mg/mL=100 mM (6.25% w/v) (viscous, pipette Triton X-100 with a Gilson using a trimmed pipette tip)
ECHO Protocol • Create an ECHO intermediate plate by adding 24.5 μL DMSO to columns 1 & 2, and 40 μL DMSO to columns 23 & 24 of an ECHO 384PP plate • Add 100 nL of compound/DMSO per well in 384-well Proxi-Plate Plus (white) —Perkin Elmer Cat #6008289 using ECHO dose response protocol 100 nL normal to proxi_8pt_200 uM.
Assay buffer (Keep on ice): HEPES pH 6.8, MgCl2, EGTA, Triton X-100, DTT, HPLC H2O Microtubule Working Solution (3.2): • 1 ml PM buffer: PIPES pH 7.0, MgCl2, HPLC H2O, Paclitaxel, mix well, store at rt • Then add 26.4 μL of 10 mg/ml microtubules to 724 μL of the above PM buffer to make 750 μL of microtubule working solution @350 μg/mL microtubules (store at rt)
Stock HSET enzyme solution (3.1)—keep on ice • Add 1.33 μL 10.2 μM HSET Prepi (SEQ-000096_002-01_01) to 1358 μL assay buffer to make a 10 nM stock for a 5 nM final assay concentration (1/1020 dilution).
HSET/Microtubule working solution (3.3) • Mix solutions 3.1 and 3.2 in the ratio of 2.5:1 (1214.3 μL 3.1+485.7 μL 3.2) keep at rt for 15 min • 3.2 is diluted 3.5-fold, 3.1 is diluted 1.4-fold BLANK solution is 357 μL 2XAB+143 μL microtubule working solution 3.2. (Same proportions as HSET/Microtubule working solution (3.3))
ATP Working solution is 1 μL 10 mM UltraPure ATP (Promega kit)+999 μL ddH20 gives 10 μM ATP for a 3 μM final assay concentration, stored on ice.
Assay procedure in PROXIPLATE 384 PLUS WHITE (Perkin Elmer) plates (Remove 2.4 mL ADP Glo and 4.5 mL Kinase detection reagent from freezer to warm up to rt) • Add 3.5 μL BLANK solution to assay plate (column 12) • Add 3.5 μL HSET/Microtubule solution (3.3) (columns 1-11 & 13-24) • Centrifuge at 1000 rpm for 1 min • (pre-incubate enzyme and compound for 10 min)
Add 1.5 μL of 10 μM ATP to start reaction gives a final [HSET] of 5 nM, [ATP] of 3 μM and [microtubule] of 70 μg/mL, centrifuge at 1000 rpm for 1 min and incubated at rt for 80 min.
After the 80-minute incubation, stop reaction by adding 5 μL ADP-Glo reagent to all wells. Centrifuge for 1 min at 1000 rpm, leave for 40 min at rt.
In the dark/away from direct light, add 10 μL Kinase Detection Reagent (KDR) to all wells, Seal plate with a Topseal (Perkin Elmer Cat #6050185) and centrifuge as above, leave for 40 min at rt covered in foil. […]

Sequence of HSET full length protein (Q9BW19 whole entry): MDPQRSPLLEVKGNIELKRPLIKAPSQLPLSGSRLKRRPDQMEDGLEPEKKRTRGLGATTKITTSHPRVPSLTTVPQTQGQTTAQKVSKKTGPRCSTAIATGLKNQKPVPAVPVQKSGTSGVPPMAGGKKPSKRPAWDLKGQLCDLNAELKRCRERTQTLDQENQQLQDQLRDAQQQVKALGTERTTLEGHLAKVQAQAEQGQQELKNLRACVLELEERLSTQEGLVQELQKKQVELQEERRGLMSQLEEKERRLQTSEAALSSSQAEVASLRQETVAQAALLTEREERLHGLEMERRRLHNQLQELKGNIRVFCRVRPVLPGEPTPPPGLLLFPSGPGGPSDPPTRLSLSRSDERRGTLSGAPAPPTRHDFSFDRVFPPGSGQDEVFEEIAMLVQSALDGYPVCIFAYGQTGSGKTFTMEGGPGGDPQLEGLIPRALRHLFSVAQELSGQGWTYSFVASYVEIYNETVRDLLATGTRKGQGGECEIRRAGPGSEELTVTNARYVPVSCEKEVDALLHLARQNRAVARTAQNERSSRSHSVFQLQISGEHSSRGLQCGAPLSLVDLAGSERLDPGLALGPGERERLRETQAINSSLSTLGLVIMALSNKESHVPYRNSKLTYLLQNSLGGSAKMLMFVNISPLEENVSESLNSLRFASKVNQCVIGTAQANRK

| SMILES | pIC50 |
| --- | --- |
| CCOC(=O)c1sc(NC(=O)CCNC(=O)c2cccc(C)c2)nc1C [Example 1, Ethyl 4-methyl-2-(3-(3-methylbenzamido)propanamido)thiazole-5-carboxylate] | 5.56 |
| CCOC(=O)c1sc(NC(=O)CCNC(=O)c2cccc(N3CCCC3)c2)nc1C [Example 2, Ethyl 4-methyl-2-(3-(3-(pyrrolidin-1-yl)benzamido)propanamido)thiazole-5-carboxylate] | 5.40 |
| CCOC(=O)c1sc(NC(=O)CCNC(=O)c2cccc(-n3cccn3)c2)nc1C [Example 3, Ethyl 2-(3-(3-(1 H-pyrazol-1-yl)benzamido)propanamido)-4-methylthiazole-5-carboxylate] | 5.34 |
| CCOC(=O)c1sc(NC(=O)CCNC(=O)c2cccc(-c3noc(C)n3)c2)nc1C [Example 4, Ethyl 4-methyl-2-(3-(3-(5-methyl-1,2,4-oxadiazol-3-yl)benzamido)propanamido)thiazole-5-carboxylate] | 7.20 |
| CCOC(=O)c1sc(NC(=O)CCNC(=O)c2ccc3c(c2)CCCC3)nc1C [Example 5, Ethyl 4-methyl-2-(3-(5,6,7,8-tetrahydronaphthalene-2-carboxamido)propanamido)thiazole-5-carboxylate] | 5.78 |
| CCOC(=O)c1sc(NC(=O)CCNC(=O)c2cccc(-c3cnco3)c2)nc1C [Example 6, Ethyl 4-methyl-2-(3-(3-(oxazol-5-yl)benzamido)propanamido)thiazole-5-carboxylate] | 6.21 |
| CCOC(=O)c1sc(NC(=O)CCNC(=O)c2cccc(N3CCOCC3)c2)nc1C [Example 7, Ethyl 4-methyl-2-(3-(3-morpholinobenzamido)propanamido)thiazole-5-carboxylate] | 4.81 |
| CCOC(=O)c1sc(NC(=O)[C@@H](O)CNC(=O)c2cccc(C)c2)nc1C [Example 8, Ethyl (S)-2-(2-hydroxy-3-(3-methylbenzamido)propanamido)-4-methylthiazole-5-carboxylate] | 5.92 |
| CCOC(=O)c1sc(NC(=O)CCNC(=O)c2cccc(C(=O)OC)c2F)nc1C [Example 11, Ethyl 2-[3-[(2-fluoro-3-methoxycarbonyl-benzoyl)amino]propanoylamino]-4-methyl-thiazole-5-carboxylate] | 5.74 |
| CCOC(=O)c1sc(NC(=O)CCNC(=O)c2cc(C(=O)OC)ccc2Cl)nc1C [Example 12, Ethyl 2-[3-[(2-chloro-5-methoxycarbonyl-benzoyl)amino]propanoylamino]-4-methyl-thiazole-5-carboxylate] | 5.96 |
| CCOC(=O)c1sc(NC(=O)CCNC(=O)c2ccc(C)c(C(=O)OC)c2)nc1C [Example 14, Ethyl 2-[3-[(3-methoxycarbonyl-4-methyl-benzoyl)amino]propanoylamino]-4-methyl-thiazole-5-carboxylate] | 6.49 |
| CCOC(=O)c1sc(NC(=O)CCNC(=O)c2cc(OC)cc(C(=O)OC)c2)nc1C [Example 16, Ethyl 2-[3-[(3-methoxy-5-methoxycarbonyl-benzoyl)amino]propanoylamino]-4-methyl-thiazole-5-carboxylate] | 6.52 |
| CCOC(=O)c1sc(NC(=O)CCNC(=O)c2cc(C#N)cc(C(=O)OC)c2)nc1C [Example 17, Ethyl 2-[3-[(3-cyano-5-methoxycarbonyl-benzoyl)amino]propanoylamino]-4-methyl-thiazole-5-carboxylate] | 6.06 |
| CCOC(=O)c1sc(NC(=O)CCNC(=O)c2cc(O)cc(C(=O)OC)c2)nc1C [Example 20, Ethyl 2-[3-[(3-hydroxy-5-methoxycarbonyl-benzoyl)amino]-propanoylamino]-4-methyl-thiazole-5-carboxylate] | 6.13 |
| CCOC(=O)c1sc(NCCCNC(=O)c2cccc(-c3noc(C)n3)c2)nc1C [Example 21, Ethyl 4-methyl-2-[3-[[3-(5-methyl-1,2,4-oxadiazol-3-yl)benzoyl]amino]-propylamino]thiazole-5-carboxylate] | 4.77 |
| CCOC(=O)c1sc(NC(=O)CCNC(=O)c2cc(/C=C/c3ccccc3)cc(C(=O)OC)c2)nc1C [Example 22, Ethyl 2-[3-[[3-methoxycarbonyl-5-[(E)-styryl]benzoyl]amino]-propanoylamino]-4-methyl-thiazole-5-carboxylate] | 5.20 |

Compounds with a higher pIC50, results first:

| pIC50 | SMILES |
| --- | --- |
| 7.77 | Cc1nc(-c2ccc3ccnc(N[C@H]4C[C@@H](C(=O)Nc5nc(C)c(C(=O)O[C@H](C)C(F)(F)F)s5)C4)c3c2)no1 (stereo in doubt) [Example 114, [(1 R)-2,2,2-trifluoro-1-methyl-ethyl]4-methyl-2-[[3-[[7-(5-methyl-1,2,4-oxadiazol-3-yl)-1-isoquinolyl]amino]cyclobutanecarbonyl]amino]thiazole-5-carboxylate] |
| 8.30 | Cc1nc(-c2ccc3ccnc(N[C@H]4C[C@@H](C(=O)Nc5nc(C)c(C(=O)O[C@@H](C)C(F)(F)F)s5)C4)c3c2)no1 (stereo in doubt) [Example 115, [(1 S)-2,2,2-trifluoro-1-methyl-ethyl]4-methyl-2-[[3-[[7-(5-methyl-1,2,4-oxadiazol-3-yl)-1-isoquinolyl]amino]cyclobutanecarbonyl]amino]thiazole-5-carboxylate] |
| 7.44 | CCOC(=O)c1sc(NC(=O)CCNC(=O)c2cc(F)cc(C(=O)OC)c2)nc1C [Example 10, Ethyl 2-[3-[(3-fluoro-5-methoxycarbonyl-benzoyl)amino]propanoylamino]-4-methyl-thiazole-5-carboxylate] |
| 8.05 | CCOC(=O)c1sc(NC(=O)CCNC(=O)c2cc(Cl)cc(C(=O)OC)c2)nc1C [Example 13, Ethyl 2-[3-[(3-chloro-5-methoxycarbonyl-benzoyl)amino]propanoylamino]-4-methyl-thiazole-5-carboxylate] |
| 8.05 | CCOC(=O)c1sc(NC(=O)CCNC(=O)c2cc(C)cc(C(=O)OC)c2)nc1C [Example 15, Ethyl 2-[3-[(3-methoxycarbonyl-5-methyl-benzoyl)amino]propanoylamino]-4-methyl-thiazole-5-carboxylate] |
| 7.85 | CCOC(=O)c1sc(NC(=O)CCNC(=O)c2cc(Br)cc(C(=O)OC)c2)nc1C [Example 18, Ethyl 2-[3-[(3-bromo-5-methoxycarbonyl-benzoyl)amino]propanoylamino]-4-methyl-thiazole-5-carboxylate] |
| 7.77 | CCOC(=O)c1sc(NC(=O)CCNC(=O)c2cc(CC)cc(C(=O)OC)c2)nc1C [Example 19, Ethyl 2-[3-[(3-ethyl-5-methoxycarbonyl-benzoyl)amino]-propanoylamino]-4-methyl-thiazole-5-carboxylate] |
